Measurements from article PMC10143053, “Probing the Interactions of 31 Mycotoxins with Xanthine Oxidase: Alternariol, Alternariol-3-Sulfate, and α-Zearalenol Are Allosteric Inhibitors of the Enzyme” (Toxins, 2023).
Read-outs that look alike come from different tables or passages of the source.

Molecular target: T1, xanthine oxidase (Bos taurus, UniProt P80457)
T1 construct: gene XDH
Test: biochemical

T1 sequence (P80457 2-1332): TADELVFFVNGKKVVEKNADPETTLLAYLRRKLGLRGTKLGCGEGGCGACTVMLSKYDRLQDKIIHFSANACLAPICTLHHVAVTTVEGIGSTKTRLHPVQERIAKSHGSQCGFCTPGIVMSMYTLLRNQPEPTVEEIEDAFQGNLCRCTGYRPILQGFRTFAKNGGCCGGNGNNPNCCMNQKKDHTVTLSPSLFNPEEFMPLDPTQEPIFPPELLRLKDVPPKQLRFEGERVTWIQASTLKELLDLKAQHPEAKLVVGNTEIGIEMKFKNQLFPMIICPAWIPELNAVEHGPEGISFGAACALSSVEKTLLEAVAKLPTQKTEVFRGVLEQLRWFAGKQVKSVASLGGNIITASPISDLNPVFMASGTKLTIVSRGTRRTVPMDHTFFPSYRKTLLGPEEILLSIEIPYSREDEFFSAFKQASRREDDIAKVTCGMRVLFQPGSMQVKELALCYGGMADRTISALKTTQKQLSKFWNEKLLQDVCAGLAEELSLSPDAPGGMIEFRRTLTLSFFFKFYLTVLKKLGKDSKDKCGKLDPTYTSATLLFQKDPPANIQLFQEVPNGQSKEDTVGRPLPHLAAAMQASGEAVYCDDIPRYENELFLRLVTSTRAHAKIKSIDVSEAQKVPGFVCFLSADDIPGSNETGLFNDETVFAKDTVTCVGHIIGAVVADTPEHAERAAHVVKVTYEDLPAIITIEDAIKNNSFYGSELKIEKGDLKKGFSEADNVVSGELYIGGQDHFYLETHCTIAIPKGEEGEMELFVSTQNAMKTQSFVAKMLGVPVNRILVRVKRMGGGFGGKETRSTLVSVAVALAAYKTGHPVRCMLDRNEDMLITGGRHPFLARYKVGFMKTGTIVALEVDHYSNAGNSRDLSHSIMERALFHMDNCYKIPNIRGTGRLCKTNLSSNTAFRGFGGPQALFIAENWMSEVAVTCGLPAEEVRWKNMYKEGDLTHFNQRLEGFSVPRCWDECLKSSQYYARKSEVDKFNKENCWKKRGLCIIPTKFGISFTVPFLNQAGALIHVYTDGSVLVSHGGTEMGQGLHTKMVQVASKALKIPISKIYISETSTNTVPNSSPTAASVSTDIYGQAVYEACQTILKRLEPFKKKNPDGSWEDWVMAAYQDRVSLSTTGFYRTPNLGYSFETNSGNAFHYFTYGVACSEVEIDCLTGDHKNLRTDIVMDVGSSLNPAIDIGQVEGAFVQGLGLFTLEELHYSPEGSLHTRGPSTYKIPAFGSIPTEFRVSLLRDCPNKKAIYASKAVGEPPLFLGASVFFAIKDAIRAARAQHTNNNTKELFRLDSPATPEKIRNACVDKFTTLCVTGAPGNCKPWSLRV

Cc1cc(O)cc2oc(=O)c3c(O)cc(O)cc3c12 [AOH, alternariol] was tested, and the IC50 was 10.6 µM.

In the case of Cc1cc(OS(=O)(=O)O)cc2oc(=O)c3c(O)cc(O)cc3c12 [AS, alternariol-3-sulfate], the IC50 (read-out: IC50) is reported as 15 µM.

Compound C[C@H]1CCC[C@H](O)CCC/C=C/c2cc(O)cc(O)c2C(=O)O1 [α-ZEL, α-zearalenol] has an IC50 (read-out: IC50) of 17.1 µM.
